The EC50 is the midpoint of the concentration-response curve.

The first test deals with HT-1080 (ATCC, CCL-121) cells. The test can be described thus: HT-1080 cell viability assay with ferroptosis inducer RSL3 (Cell Titer-Glo). The test is classed as cell-based. As to conditions: Homo sapiens; HT-1080 cells treated with RSL3; 3-fold, 10-point dilution, 1.1 μM highest concentration; Table 2; read-out: EC50 (nM), ferroptosis inhibitory activity. The method, boiled down:
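EC50 was derived by sigmoidal dose-response regression of CellTiter-Glo luminescence viability, expressed relative to untreated wells. Compounds were tested in a ten-point, threefold dilution series (highest 1.1 μM) in the presence of the ferroptosis inducer RSL3. HT-1080 cells had been seeded at 6000 per well and grown overnight first.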
(In general: In ATP-based viability assays light output follows the ATP content of the culture.)
For the compound `Cc1cc(Nc2ccc3c(c2)OCC(=O)N3)ccc1N1CC(C)OC(C)C1` (stereo not drawn) [Compound 138, 7-((4-(2,6-dimethylmorpholino)-3-methylphenyl)amino)-2H-benzo[b][1,4]oxazin-3(4H)-one], the EC50 lay within 0.1 to 100 nM.
On the same count and under the same terms, to `CN1C(=O)COc2cc(Nc3ccc(N4CCC(C(F)(F)F)CC4)cc3)ccc21` [Compound 2, 4-methyl-7-((4-(4-(trifluoromethyl)piperidin-1-yl)phenyl)amino)-2H-benzo[b][1,4]oxazin-3(4H)-one] belongs 0.1 to 100 nM; to `FC(F)(F)C1CCN(c2ccc(Nc3ccc4ocnc4c3)cc2)CC1` [Compound 359, N-(4-(4-(trifluoromethyl)piperidin-1-yl)phenyl)benzo[d]oxazol-5-amine], 0.1 to 100 nM.
The same measure, in the same setting: with `CCOc1ccc(Nc2ccc3c(c2)n(C)c(=O)n3C)cc1` [Compound 309, 5-((4-ethoxyphenyl)amino)-1,3-dimethyl-1,3-dihydro-2H-benzo[d]imidazol-2-one] the figure was 0.1 to 100 nM; with `CNCCN1C(=O)COc2cc(Nc3ccc(N4CC(C)OC(C)C4)c(C)c3)ccc21` (stereo not drawn) [Compound 62, 7-((4-(2,6-dimethylmorpholino)-3-methylphenyl)amino)-4-(2-(methylamino)ethyl)-2H-benzo[b][1,4]oxazin-3(4H)-one], 0.1 to 100 nM; with `Cc1cc(N2CC(C)OC(C)C2)ccc1Nc1ccc2c(c1)ncn2C` (stereo not drawn) [Compound 447, N-(4-(2,6-dimethylmorpholino)-2-methylphenyl)-1-methyl-1H-benzo[d]imidazol-5-amine], 0.1 to 100 nM.
Same read-out and setting: with `CC1CN(c2ccc(Nc3ccc4c(c3)CNC4)cc2)CC(C)O1` (stereo not drawn) [Compound 431, N-(4-(2,6-dimethylmorpholino)phenyl)isoindolin-5-amine] the figure was 0.1 to 100 nM.
In the case of `COc1cc(Nc2ccc3c(c2)CN(C)C3=O)ccc1N1CCC(C(F)(F)F)CC1` [Compound 243, 5-((3-methoxy-4-(4-(trifluoromethyl)piperidin-1-yl)phenyl)amino)-2-methylisoindolin-1-one], the EC50 was in the range of 0.1 to 100 nM.
On the same count and under the same terms, to `CNCCn1c(=O)oc2ccc(Nc3ccc(N4CC(C)OC(C)C4)cc3)cc21` (stereo not drawn) [Compound 427, 5-((4-(2,6-dimethylmorpholino)phenyl)amino)-3-(2-(methylamino)ethyl) benzo[d]oxazol-2(3H)-one] belongs 0.1 to 100 nM; to `CC(C)(C)c1ccc(Nc2ccc3c(c2)OCC(=O)N3)cc1` [Compound 135, 7-((4-(tert-butyl)phenyl)amino)-2H-benzo[b][1,4]oxazin-3(4H)-one], 0.1 to 100 nM.
For `CN1CCOc2cc(Nc3ccc(N4CCC(C(F)(F)F)CC4)cc3)ccc2C1=O` [Compound 346, 4-methyl-8-((4-(4-(trifluoromethyl)piperidin-1-yl)phenyl)amino)-3,4-dihydrobenzo[f][1,4]oxazepin-5(2H)-one], the EC50 was 100 to 1000 nM.
On the same count and under the same terms, to `CCCCCc1ccc(Nc2ccc3c(c2)OCC(=O)N3C)cc1` [Compound 6, 4-methyl-7-((4-pentylphenyl)amino)-2H-benzo[b][1,4]oxazin-3(4H)-one] belongs 0.1 to 100 nM; to `CC1CCN(c2ccc(Nc3ccc4oc(=O)n(C)c4c3)cc2)CC1` [Compound 286, 3-methyl-5-((4-(4-methylpiperidin-1-yl)phenyl)amino)benzo[d]oxazol-2(3H)-one], 0.1 to 100 nM; to `Cn1c(=O)n(CCN2CCCC2=O)c2ccc(Nc3ccc(N4CCC(C(F)(F)F)CC4)cc3)cc21` [Compound 367, 3-methyl-1-(2-(2-oxopyrrolidin-1-yl)ethyl)-5-((4-(4-(trifluoromethyl)piperidin-1-yl)phenyl)amino)-1,3-dihydro-2H-benzo[d]imidazol-2-one], 0.1 to 100 nM.
As to `Cc1cc(N2CCC(C(F)(F)F)CC2)ncc1Nc1ccc2c(c1)n(C)c(=O)n2C` [Compound 379, 1,3-dimethyl-5-((4-methyl-6-(4-(trifluoromethyl)piperidin-1-yl)pyridin-3-yl)amino)-1,3-dihydro-2H-benzo[d]imidazol-2-one], the EC50 was 0.1 to 100 nM.
On the same count and under the same terms, to `CN1C(=O)c2ccc(Nc3ccc(N4CCC(C(F)(F)F)CC4)cc3)cc2C1=O` [Compound 201, 2-methyl-5-((4-(4-(trifluoromethyl)piperidin-1-yl)phenyl)amino) isoindoline-1,3-dione] belongs 0.1 to 100 nM; to `COc1cc(N2CCC(C(F)(F)F)CC2)ccc1Nc1ccc2c(c1)OCC(=O)N2C` [Compound 90, 7-((2-methoxy-4-(4-(trifluoromethyl)piperidin-1-yl)phenyl)amino)-4-methyl-2H-benzo[b][1,4]oxazin-3(4H)-one], 0.1 to 100 nM.
Still for that read-out and setting: to `CN(C)c1ccc(Nc2ccc3c(c2)n(C)c(=O)n3C)cc1` [Compound 284, 5-((4-(dimethylamino)phenyl)amino)-1,3-dimethyl-1,3-dihydro-2H-benzo[d]imidazol-2-one] belongs 0.1 to 100 nM; to `COc1cc(Nc2ccc3c(c2)OCC(=O)N3)cnc1N1CCC(C(F)(F)F)CC1` [Compound 131, 7-((5-methoxy-6-(4-(trifluoromethyl)piperidin-1-yl)pyridin-3-yl)amino)-2H-benzo[b][1,4]oxazin-3(4H)-one], 0.1 to 100 nM.
Consider `CC1CCC(C)N1c1ccc(Nc2ccc3c(c2)n(C)c(=O)n3C)cc1` (stereo not drawn) [Compound 254, 5-((4-(2,5-dimethylpyrrolidin-1-yl)phenyl)amino)-1,3-dimethyl-1,3-dihydro-2H-benzo[d]imidazol-2-one], for which the EC50 lay in the range of 0.1 to 100 nM.
On the same count and under the same terms, with `Cc1ccc(Cl)c(Nc2ccc3c(c2)CN(C)C3=O)c1` [Compound 230, 5-((2-chloro-5-methylphenyl)amino)-2-methylisoindolin-1-one] the figure was 0.1 to 100 nM; with `Cn1nnc2ccc(Nc3ccc(N4CCC(C(F)(F)F)CC4)cc3)cc21` [Compound 314, 1-methyl-N-(4-(4-(trifluoromethyl)piperidin-1-yl)phenyl)-1H-benzo[d][1,2,3]triazol-6-amine], 0.1 to 100 nM; with `Cn1c(=O)n(C)c2cc(Nc3ccccc3)ccc21` [Compound 382, 1,3-dimethyl-5-(phenylamino)-1,3-dihydro-2H-benzo[d]imidazol-2-one], 0.1 to 100 nM.
Turning to `CC(C)(C)N1Cc2cc(Nc3ccc(N4CCC(C(F)(F)F)CC4)cc3)ccc2C1=O` [Compound 197, 2-(tert-butyl)-5-((4-(4-(trifluoromethyl)piperidin-1-yl)phenyl)amino) isoindolin-1-one], the EC50 lay within 0.1 to 100 nM.
Still for that read-out and setting: to `Cn1c(N)nc2cc(Nc3ccc(N4CCC(C(F)(F)F)CC4)cc3)ccc21` [Compound 370, 1-methyl-N^5-(4-(4-(trifluoromethyl)piperidin-1-yl)phenyl)-1H-benzo[d]imidazole-2,5-diamine] belongs 0.1 to 100 nM.
On the same count and under the same terms, to `O=C1c2ccc(Nc3ccc(N4CCC(C(F)(F)F)CC4)cc3)cc2CN1C1CC1` [Compound 209, 2-cyclopropyl-5-((4-(4-(trifluoromethyl)piperidin-1-yl)phenyl)amino) isoindolin-1-one] belongs 0.1 to 100 nM; to `Cc1cc(Nc2ccc3c(c2)n(C)c(=O)n3C)cnc1N1CCC(C(F)(F)F)CC1` [Compound 371, 1,3-dimethyl-5-((5-methyl-6-(4-(trifluoromethyl)piperidin-1-yl)pyridin-3-yl)amino)-1,3-dihydro-2H-benzo[d]imidazol-2-one], 0.1 to 100 nM; to `CC1CCN(c2ccc(Nc3ccc4c(c3)C(C)(C)CN4C)cc2)CC1` [Compound 311, 1,3,3-trimethyl-N-(4-(4-methylpiperidin-1-yl)phenyl)indolin-5-amine], 0.1 to 100 nM.

Staying with this test, now noted: Homo sapiens; HT-1080 cells treated with RSL3; 3-fold, 10-point dilution, 1.1 μM highest concentration; Table 3; read-out: EC50 (nM), ferroptosis inhibitory activity.
Take `Cc1cc(N2CC(C)OC(C)C2)ccc1Nc1ccc2c(c1)OCC(=O)N2CCO` (stereo not drawn) [Compound 456, 7-((4-(2,6-dimethylmorpholino)-2-methylphenyl)amino)-4-(2-hydroxyethyl)-2H-benzo[b][1,4]oxazin-3(4H)-one]: the 50% effective concentration (EC50) was 0.1 to 100 nM.
On the same count and under the same terms, to `Cc1cc(N2CC(C)C2)ccc1Nc1ccc2c(c1)OCC(=O)N2` [Compound 577, 7-((2-methyl-4-(3-methylazetidin-1-yl)phenyl)amino)-2H-benzo[b][1,4]oxazin-3(4H)-one] belongs 0.1 to 100 nM; to `COC(C)(C)C1CCN(c2ccc(Nc3ccc4c(c3)OCC(=O)N4)c(C)c2)CC1` [Compound 559, 7-((4-(4-(2-methoxypropan-2-yl)piperidin-1-yl)-2-methylphenyl)amino)-2H-benzo[b][1,4]oxazin-3(4H)-one], 0.1 to 100 nM; to `COC(C)(C)C1CCN(c2ccc(Nc3ccc4c(c3)OCC(=O)N4)cc2)CC1` [Compound 560, 7-((4-(4-(2-methoxypropan-2-yl)piperidin-1-yl)phenyl)amino)-2H-benzo[b][1,4]oxazin-3(4H)-one], 0.1 to 100 nM.
Regarding `Cc1c(Nc2ccc3c(c2)OCC(=O)N3C)ccc(N2CCC(C(F)(F)F)CC2)c1C#N` [Compound 492, 2-methyl-3-((4-methyl-3-oxo-3,4-dihydro-2H-benzo[b][1,4]oxazin-7-yl)amino)-6-(4-(trifluoromethyl)piperidin-1-yl)benzonitrile], the EC50 is 0.1 to 100 nM.
As for `Cc1cc(N2CCC(C(F)(F)F)CC2)c(F)cc1Nc1ccc2c(c1)OCC(=O)N2` [Compound 488, 7-((5-fluoro-2-methyl-4-(4-(trifluoromethyl)piperidin-1-yl)phenyl)amino)-2H-benzo[b][1,4]oxazin-3(4H)-one], the EC50 lay within 0.1 to 100 nM.
Still for that read-out and setting: to `Cc1cc(N2CCC(C(F)(F)F)CC2)ccc1Nc1ccc2c(c1)NCCC(=O)N2` [Compound 643, 7-((2-methyl-4-(4-(trifluoromethyl)piperidin-1-yl)phenyl)amino)-1,3,4,5-tetrahydro-2H-benzo[b][1,4]diazepin-2-one] belongs 0.1 to 100 nM; to `Cc1cc(N2CC(C)OC(C)C2)ccc1Nc1ccc2c(c1)nc(N)n2C` (stereo not drawn) [Compound 536, 5-N-[4-(2,6-dimethylmorpholin-4-yl)-2-methylphenyl]-1-methyl-1,3-benzodiazole-2,5-diamine], 0.1 to 100 nM.

Source of the values: patent publication US20240327393A1 (SIRONAX LTD., priority 2021, published 2024).
